Test results taken from patent US20100278835A1, “NOVEL COMPOUNDS 660” (ASTRAZENECA UK LIMITED, priority 2009, published 2010).

What follows are compounds tested on RSV RSS strain (assay: ELISA assay of antiviral activity against RSV (reduction in RSV protein expression)). Conditions: Hep-2 cells infected with RSV RSS strain, multiplicity of infection 0.02, 3 days; concentration required to inhibit RSV protein expression by 50%.
Type: cell-based
Experimental: The antiviral activity of these compounds against RSV was determined in an ELISA assay. […] ELISA assays were set up by seeding 96-well plates with 5×10^3 Hep-2 cells per well in 100 μl DMEM containing 10% FBS for 24 h. Compound dilutions were prepared in 0.5% DMSO and 50 μl/well was added to the assay plates, the plates were incubated at 37° C. in 5% CO2 for one hour. Cells were infected with 50 μl/well RSV RSS strain at a multiplicity of infection of 0.02 and were incubated at 37° C. in 5% CO2 for 3 days. Cells were then fixed and permeabilised with 75%/25% methanol acetone and blocked with 2% Marvel™, 0.05% Tween for one hour. Plates were then incubated in the presence of a 1:4000 dilution of […] polyclonal antibody (Millipore, AB1128) followed by a 1:1000 dilution of rabbit anti-goat, horseradish peroxidase (DAKO, PO449) labelled secondary antibody. The plates were developed with O-phenylenediamine in the presence of hydrogen peroxide. The antiviral activity of the compounds is presented as an IC50, the concentration required to inhibit RSV protein expression by 50%.

| Compound | IC50 [nM] |
| --- | --- |
| 1-[[5-(aminomethyl)-1-(4-hydroxybutyl)benzimidazol-2-yl]methyl]-3-(2-methoxyethyl)-4H-quinazolin-2-one [Example 26] | 0.4 |
| 1-[[5-[(3-aminopropylamino)methyl]-1-isopentyl-benzimidazol-2-yl]methyl]-3-methyl-4H-quinazolin-2-one [Example 31] | 23 |
| CC(C)CCn1c(CN2C(=O)N(CC3CCCCC3)Cc3ccccc32)nc2cc(CN)ccc21 [Example 19, 1-[[5-(aminomethyl)-1-isopentyl-benzimidazol-2-yl]methyl]-3-(cyclohexylmethyl)-4H-quinazolin-2-one] | 2890 |
| 2-[(3-cyclopropyl-2-oxo-4H-quinazolin-1-yl)methyl]-N′-hydroxy-1-isopentyl-benzimidazole-5-carboxamidine [Example 38] | 88.9 |
| 1-[[5-[(3-aminopropylamino)methyl]-1-isopentyl-benzimidazol-2-yl]methyl]-3-cyclopropyl-4H-quinazolin-2-one [Example 32] | 32 |
| 1-[[5-(aminomethyl)-1-(4-hydroxybutyl)benzimidazol-2-yl]methyl]-3-cyclopropyl-4H-quinazolin-2-one [Example 25] | 1.5 |
| CC(C)CCn1c(CN2C(=O)N(CCCN3CCCC3)Cc3ccccc32)nc2cc(CN)ccc21 [Example 17, 1-[[5-(aminomethyl)-1-isopentyl-benzimidazol-2-yl]methyl]-3-(3-pyrrolidin-1-ylpropyl)-4H-quinazolin-2-one] | 13.7 |
| 1-[[5-[(3-aminopropylamino)methyl]-1-isopentyl-benzimidazol-2-yl]methyl]-3-(2-methoxyethyl)-4H-quinazolin-2-one [Example 33] | 243 |
| 3-cyclopropyl-1-[(1-isopentylbenzimidazol-2-yl)methyl]-4,4-dimethyl-quinazolin-2-one [Example 4] | 1420 |
| CC(C)CCn1c(CN2C(=O)N(C3CC3)C(C)c3ccccc32)nc2cc(C(=N)N)ccc21 (stereo not drawn) [Example 36, 2-[(3-cyclopropyl-4-methyl-2-oxo-4H-quinazolin-l-yl)methyl]-1-isopentyl-benzimidazole-5-carboxamidine] | 8.4 |
| 1-[[5-(aminomethyl)-1-(4-hydroxybutyl)benzimidazol-2-yl]methyl]-3-(cyclohexylmethyl)-4H-quinazolin-2-one [Example 27] | 94 |

Same assay, conditions: human respiratory syncytial virus, 72 h; Hep-2 cells infected with RSV RSS strain, multiplicity of infection 0.02, 3 days; concentration required to inhibit RSV protein expression by 50%

| Compound | IC50 [nM] |
| --- | --- |
| CC(C)CCn1c(CN2C(=O)N(CC3CC3)Cc3ccccc32)nc2cc(CN)ccc21 [Example 16, 1-[[5-(aminomethyl)-1-isopentyl-benzimidazol-2-yl]methyl]-3-(cyclopropylmethyl)-4H-quinazolin-2-one] | 5.9 |
| N=C(N)c1ccc2c(c1)nc(CN1C(=O)N(C3CC3)Cc3ccccc31)n2CCCC(F)(F)F [Example 41, 2-[(3-cyclopropyl-2-oxo-4H-quinazolin-1-yl)methyl]-1-(4,4,4-trifluorobutyl)benzimidazole-5-carboxamidine] | 1.6 |
| CC(C)CCn1c(CN2C(=O)N(CCc3ccccc3)Cc3ccccc32)nc2cc(CN)ccc21 [Example 11, 1-[[5-(aminomethyl)-1-isopentyl-benzimidazol-2-yl]methyl]-3-phenethyl-4H-quinazolin-2-one] | 18.8 |
| CC1(C)c2ccccc2N(Cc2nc3cc(CN)ccc3n2CCCC(F)(F)F)C(=O)N1C1CC1 [Example 30, 1-[[5-(aminomethyl)-1-(4,4,4-trifluorobutyl)benzimidazol-2-yl]methyl]-3-cyclopropyl-4,4-dimethyl-quinazolin-2-one] | 11 |
| CC(C)CCn1c(CN2C(=O)N(C3CC3)C(C)c3ccccc32)nc2cc(C(N)=NO)ccc21 (centres unmarked) [Example 39, 2-[(3-cyclopropyl-4-methyl-2-oxo-4H-quinazolin-1-yl)methyl]-N′-hydroxy-1-isopentyl-benzimidazole-5-carboxamidine] | 400 |
| CC(C)CCn1c(CN2C(=O)N(C(C)(C)C)Cc3ccccc32)nc2cc(CN)ccc21 [Example 8, 1-[[5-(aminomethyl)-1-isopentyl-benzimidazol-2-yl]methyl]-3-tert-butyl-4H-quinazolin-2-one] | 16.7 |
| CC1c2ccccc2N(Cc2nc3cc(C(=N)N)ccc3n2CCCC(F)(F)F)C(=O)N1C1CC1 (centres unmarked) [Example 42, 2-[(3-cyclopropyl-4-methyl-2-oxo-4H-quinazolin-1-yl)methyl]-1-(4,4,4-trifluorobutyl)benzimidazole-5-carboxamidine] | 11.8 |
| CCCN1Cc2ccccc2N(Cc2nc3cc(CN)ccc3n2CCC(C)C)C1=O [Example 6, 1-[[5-(aminomethyl)-1-isopentyl-benzimidazol-2-yl]methyl]-3-propyl-4H-quinazolin-2-one] | 1.2 |
| CC(C)CCn1c(CN2C(=O)N(CC(C)C)Cc3ccccc32)nc2cc(CN)ccc21 [Example 15, 1-[[5-(aminomethyl)-1-isopentyl-benzimidazol-2-yl]methyl]-3-isobutyl-4H-quinazolin-2-one] | 1.9 |
| CN1Cc2ccccc2N(Cc2nc3cc(CN)ccc3n2CCCCO)C1=O [Example 24, 1-[[5-(aminomethyl)-1-(4-hydroxybutyl)benzimidazol-2-yl]methyl]-3-methyl-4H-quinazolin-2-one] | 3.2 |
| CN1Cc2ccccc2N(Cc2nc3cc(CNCCCN)ccc3n2CCCCO)C1=O [Example 34, 1-[[5-[(3-Aminopropylamino)methyl]-1-(4-hydroxybutyl)benzimidazole-2-yl]methyl]-3-methyl-4H-quinazolin-2-one] | 84 |
| CC(C)CCn1c(CN2C(=O)N(C3CCCC3)Cc3ccccc32)nc2cc(CN)ccc21 [Example 9, 1-[[5-(aminomethyl)-1-isopentyl-benzimidazol-2-yl]methyl]-3-cyclopentyl-4H-quinazolin-2-one] | 1.3 |
| CSCCN1Cc2ccccc2N(Cc2nc3cc(CN)ccc3n2CCC(C)C)C1=O [Example 18, 1-[[5-(aminomethyl)-1-isopentyl-benzimidazol-2-yl]methyl]-3-(2-methylsulfanylethyl)-4H-quinazolin-2-one] | 4 |
| CC(C)CCn1c(CN2C(=O)N(Cc3ccccc3)Cc3ccccc32)nc2cc(CN)ccc21 [Example 10, 1-[[5-(aminomethyl)-1-isopentyl-benzimidazol-2-yl]methyl]-3-benzyl-4H-quinazolin-2-one] | 15.7 |
| CC(C)CCn1c(CN2C(=O)N(C3CC3)Cc3cccnc32)nc2cc(CN)ccc21 [Example 12, 1-[[5-(aminomethyl)-1-isopentyl-benzimidazol-2-yl]methyl]-3-cyclopropyl-4H-pyrido[2,3-d]pyrimidin-2-one] | 53.1 |
| CC(C)CCn1c(CN2C(=O)N(C3CC3)C(C)(C)c3ccccc32)nc2cc(C(=N)N)ccc21 [Example 37, 2-[(3-cyclopropyl-4,4-dimethyl-2-oxo-quinazolin-1-yl)methyl]-1-isopentyl-benzimidazole-5-carboxamidine] | 42 |
| CC1(C)c2ccccc2N(Cc2nc3cc(/C(N)=N/O)ccc3n2CCCC(F)(F)F)C(=O)N1C1CC1 [Example 45, 2-[(3-cyclopropyl-4,4-dimethyl-2-oxo-quinazolin-1-yl)methyl]-N′-hydroxy-1-(4,4,4-trifluorobutyl)benzimidazole-5-carboxamidine] | > 1000 |
| CC1c2ccccc2N(Cc2nc3cc(CN)ccc3n2CCCC(F)(F)F)C(=O)N1C1CC1 (centres unmarked) [Example 29, 1-[[5-(aminomethyl)-1-(4,4,4-trifluorobutyl)benzimidazol-2-yl]methyl]-3-cyclopropyl-4-methyl-4H-quinazolin-2-one] | 3.8 |
| CC1(C)c2ccccc2N(Cc2nc3cc(C(=N)N)ccc3n2CCCC(F)(F)F)C(=O)N1C1CC1 [Example 43, 2-[(3-cyclopropyl-4,4-dimethyl-2-oxo-quinazolin-1-yl)methyl]-1-(4,4,4-trifluorobutyl)benzimidazole-5-carboxamidine] | 18 |
| CC(C)CCn1c(CN2C(=O)N(C3CC3)Cc3c2cccc3C(F)(F)F)nc2cc(CN)ccc21 [Example 22, 1-[[5-(aminomethyl)-1-isopentyl-benzimidazol-2-yl]methyl]-3-cyclopropyl-5-(trifluoromethyl)-4H-quinazolin-2-one] | 8.9 |
| CC1c2ccccc2N(Cc2nc3cc(C(N)=NO)ccc3n2CCCC(F)(F)F)C(=O)N1C1CC1 (centres unmarked) [Example 44, 2-[(3-cyclopropyl-4-methyl-2-oxo-4H-quinazolin-1-yl)methyl]-N′-hydroxy-1-(4,4,4-trifluorobutyl)benzimidazole-5-carboxamidine] | 229 |
| CC(C)CCn1c(CN2C(=O)N(C3CC3)Cc3ccccc32)nc2ccccc21 [Example 1] | 1890 |
| CC(C)CCn1c(CN2C(=O)N(C3CC3)C(C)(C)c3ccccc32)nc2cc(/C(N)=N/O)ccc21 [Example 40, 2-[(3-cyclopropyl-4,4-dimethyl-2-oxo-quinazolin-1-yl)methyl]-N′-hydroxy-1-isopentyl-benzimidazole-5-carboxamidine] | > 1000 |
| CC(C)CCn1c(CN2C(=O)N(C3CC3)C(C)c3ccccc32)nc2ccccc21 (centres unmarked) [Example 3, 3-cyclopropyl-1-[(1-isopentylbenzimidazol-2-yl)methyl]-4-methyl-4H-quinazolin-2-one] | 1300 |
